Measurements reported in publication PMC10538245, “Fragment merging approach for design, synthesis, and biological assessment of urea/acetyl hydrazide clubbed thienopyrimidine derivatives as GSK-3β inhibitors” (BMC Chemistry, 2023).

Assays:
A498 = experiment: NCI 60-cell line one dose antiproliferative assay; assay type: cell-based; conditions: Homo sapiens; A498, Renal Cancer, 10 µM one dose; read-out: Percent inhibition (cell growth inhibition %)
From the text: (§1) The National Cancer Institute "NCI", NIH, Bethesda, Maryland, USA (www.dtp.nci.nih.gov) chose six of the final compounds for the Developmental Therapeutic Program (DTP), codes (5a, 5b, 5c, 5d, 6a, 6b). The NCI screening service will favor compounds with drug-like modes of action based on computer-aided design. Selection The criterion for screening is the possibility of the submitted compounds to provide diversity to the NCI small molecule chemical collection. This screen employs 60 different Leukemia, melanoma, and additional tumor cell lines of the human from brain, kidney, lung, ovary, colon, breast, and prostate cancers. All compounds were picked based on their NCI codes. NSC: D-820696/1, NSC: D-820697/1, NSC: D-820698/1, NSC: D-820699/1, NSC: D-820700/1, NSC: D-820701/1. The initial 10 µM one dose percent inhibition assay was performed on the entire NCI 60 cell panel to examine the different chemotypes of this work. The results are presented as a percentage of cell growth on each of the 60 NCI cell line panels for each of the investigated substances in Table 2.
(§2) The NCI cancer screening procedure includes a comparison of all substances to the sixty NCI cell line panel representing leukemia, NSCLC, cell lines from breast cancer, prostate cancer, melanoma, CNS cancer, renal cancer, ovarian cancer, and colon cancer at a single point of 10 uM. The results of the single-dose screen can be presented using a mean graph.

NCI-H226 = experiment: NCI 60-cell line one dose antiproliferative assay; assay type: cell-based; conditions: Homo sapiens; NCI-H226, Non-Small Cell Lung Cancer, 10 µM one dose; read-out: Percent inhibition (cell growth inhibition %)
From the text: as §1, §2

NCI-H522 = experiment: NCI 60-cell line one dose antiproliferative assay; assay type: cell-based; conditions: Homo sapiens; NCI-H522, Non-Small Cell Lung Cancer, 10 µM one dose; read-out: Percent inhibition (cell growth inhibition %)
From the text: as §1, §2

SF-268 = experiment: NCI 60-cell line one dose antiproliferative assay; assay type: cell-based; conditions: Homo sapiens; SF-268, CNS Cancer, 10 µM one dose; read-out: Percent inhibition (cell growth inhibition %)
From the text: as §1, §2

MCF7 = experiment: NCI 60-cell line one dose antiproliferative assay; assay type: cell-based; conditions: Homo sapiens; MCF7, Breast Cancer, 10 µM one dose; read-out: Percent inhibition (cell growth inhibition %)
From the text: as §1, §2

UO-31 = experiment: NCI 60-cell line one dose antiproliferative assay; assay type: cell-based; conditions: Homo sapiens; UO-31, Renal Cancer, 10 µM one dose; read-out: Percent inhibition (cell growth inhibition %)
From the text: as §1, §2

UACC-62 = experiment: NCI 60-cell line one dose antiproliferative assay; assay type: cell-based; conditions: Homo sapiens; UACC-62, Melanoma, 10 µM one dose; read-out: Percent inhibition (cell growth inhibition %)
From the text: as §1, §2

PC-3 = experiment: NCI 60-cell line one dose antiproliferative assay; assay type: cell-based; conditions: Homo sapiens; PC-3, Prostate Cancer, 10 µM one dose; read-out: Percent inhibition (cell growth inhibition %)
From the text: as §1, §2

NCI-H460 = experiment: NCI 60-cell line one dose antiproliferative assay; assay type: cell-based; conditions: Homo sapiens; NCI-H460, Non-Small Cell Lung Cancer, 10 µM one dose; read-out: Percent inhibition (cell growth inhibition %)
From the text: as §1, §2

T-47D = experiment: NCI 60-cell line one dose antiproliferative assay; assay type: cell-based; conditions: Homo sapiens, T47D, Breast Cancer, 10 µM one dose, read-out: Percent inhibition (cell growth inhibition %)
From the text: as §1, §2

IGROV1 = experiment: NCI 60-cell line one dose antiproliferative assay; assay type: cell-based; conditions: Homo sapiens, IGROV-1; IGROV1, Ovarian Cancer, 10 µM one dose; read-out: Percent inhibition (cell growth inhibition %)
From the text: as §1, §2

OVCAR-5 = experiment: NCI 60-cell line one dose antiproliferative assay; assay type: cell-based; conditions: Homo sapiens; OVCAR-5, Ovarian Cancer, 10 µM one dose; read-out: Percent inhibition (cell growth inhibition %)
From the text: as §1, §2

MOLT-4 = experiment: NCI 60-cell line one dose antiproliferative assay; assay type: cell-based; conditions: Homo sapiens; MOLT-4, Leukemia, 10 µM one dose; read-out: Percent inhibition (cell growth inhibition %)
From the text: as §1, §2

SNB-75 = experiment: NCI 60-cell line one dose antiproliferative assay; assay type: cell-based; conditions: Homo sapiens; SNB-75, CNS Cancer, 10 µM one dose; read-out: Percent inhibition (cell growth inhibition %)
From the text: as §1, §2

SW-620 = experiment: NCI 60-cell line one dose antiproliferative assay; assay type: cell-based; conditions: Homo sapiens; SW-620, Colon Cancer, 10 µM one dose; read-out: Percent inhibition (cell growth inhibition %)
From the text: as §1, §2

CAKI-1 = experiment: NCI 60-cell line one dose antiproliferative assay; assay type: cell-based; conditions: Homo sapiens; CAKI-1, Renal Cancer, 10 µM one dose; read-out: Percent inhibition (cell growth inhibition %)
From the text: as §1, §2

SNB-19 = experiment: NCI 60-cell line one dose antiproliferative assay; assay type: cell-based; conditions: Homo sapiens; SNB-19, CNS Cancer, 10 µM one dose; read-out: Percent inhibition (cell growth inhibition %)
From the text: as §1, §2

MDA-MB-468 = experiment: NCI 60-cell line one dose antiproliferative assay; assay type: cell-based; conditions: Homo sapiens; MDA-MB-468, Breast Cancer, 10 µM one dose; read-out: Percent inhibition (cell growth inhibition %)
From the text: as §1, §2

NCI-H322M = experiment: NCI 60-cell line one dose antiproliferative assay; assay type: cell-based; conditions: Homo sapiens, Non-Small Cell Lung Cancer, 10 µM one dose, read-out: Percent inhibition (cell growth inhibition %)
From the text: as §1, §2

A549/ ATCC = experiment: NCI 60-cell line one dose antiproliferative assay; assay type: cell-based; conditions: Homo sapiens, Non-Small Cell Lung Cancer, 10 µM one dose, read-out: Percent inhibition (cell growth inhibition %)
From the text: as §1, §2

HS 578 T = experiment: NCI 60-cell line one dose antiproliferative assay; assay type: cell-based; conditions: Homo sapiens, Breast Cancer, 10 µM one dose, read-out: Percent inhibition (cell growth inhibition %)
From the text: as §1, §2

LOX IMVI = experiment: NCI 60-cell line one dose antiproliferative assay; assay type: cell-based; conditions: Homo sapiens, Melanoma, 10 µM one dose, read-out: Percent inhibition (cell growth inhibition %)
From the text: as §1, §2

SK-MEL-5 = experiment: NCI 60-cell line one dose antiproliferative assay; assay type: cell-based; conditions: Homo sapiens; SK-MEL-5, Melanoma, 10 µM one dose; read-out: Percent inhibition (cell growth inhibition %)
From the text: as §1, §2

RXF 393 = experiment: NCI 60-cell line one dose antiproliferative assay; assay type: cell-based; conditions: Homo sapiens; RXF 393, Renal Cancer, 10 µM one dose; read-out: Percent inhibition (cell growth inhibition %)
From the text: as §1, §2

GSK-3β = GSK-3β (Homo sapiens, UniProt P49841); experiment: GSK-3β kinase inhibition, Z'-LYTE FRET assay (Thermo Fisher SelectScreen); assay type: biochemical
GSK-3β, sequence (P49841 whole entry): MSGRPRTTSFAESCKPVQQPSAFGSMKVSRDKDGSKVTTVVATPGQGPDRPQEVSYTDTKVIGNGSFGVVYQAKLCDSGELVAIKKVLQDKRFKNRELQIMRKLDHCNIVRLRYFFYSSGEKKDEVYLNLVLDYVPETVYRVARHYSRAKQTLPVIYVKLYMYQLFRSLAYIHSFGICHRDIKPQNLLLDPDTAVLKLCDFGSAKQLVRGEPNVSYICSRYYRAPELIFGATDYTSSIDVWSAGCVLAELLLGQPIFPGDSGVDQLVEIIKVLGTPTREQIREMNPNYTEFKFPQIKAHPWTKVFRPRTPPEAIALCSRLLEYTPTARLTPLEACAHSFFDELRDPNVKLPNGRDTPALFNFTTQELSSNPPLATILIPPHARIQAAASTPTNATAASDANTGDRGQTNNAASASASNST

## CN(C)c1ccc(C=NNC(=O)COc2ncnc3sc4c(c23)CCCC4)cc1 [5d, N'-(4-(Dimethylamino)benzylidene)-2-((5,6,7,8-tetrahydrobenzo [4,5]thieno[2,3-d]pyrimidin-4-yl)oxy) acetohydrazide]
A498
  inhibition at 10 µM: 48.4%
NCI-H226
  inhibition at 10 µM: 8.81%
NCI-H522
  inhibition at 10 µM: 4.74%
SF-268
  inhibition at 10 µM: 1.44%
MCF7
  inhibition at 10 µM: 7.82%
UO-31
  inhibition at 10 µM: 24%
UACC-62
  inhibition at 10 µM: 5.34%
PC-3
  inhibition at 10 µM: 3.93%
NCI-H460
  inhibition at 10 µM: 1.04%
T-47D
  inhibition at 10 µM: 0.95%
IGROV1
  inhibition at 10 µM: 14.4%
OVCAR-5
  inhibition at 10 µM: 8.97%
MOLT-4
  inhibition at 10 µM: 0.81%
SNB-75
  inhibition at 10 µM: 18.8%
SW-620
  inhibition at 10 µM: 2.39%
CAKI-1
  inhibition at 10 µM: 5.26%
SNB-19
  inhibition at 10 µM: 3.31%
MDA-MB-468
  inhibition at 10 µM: 15.8%
NCI-H322M
  inhibition at 10 µM: 3.69%
A549/ ATCC
  inhibition at 10 µM: 1.15%
HS 578 T
  inhibition at 10 µM: 5.71%
LOX IMVI
  inhibition at 10 µM: 2.93%
SK-MEL-5
  inhibition at 10 µM: 0.27%
RXF 393
  inhibition at 10 µM: 7.97%
GSK-3β; 10 μM
  inhibition at 10 µM: 5%
GSK-3β; 100 μM single dose
  inhibition at 100 µM: 50%
other
  melting point: 285 °C
